# Measured values taken from patent US6699877B2 (Gruenenthal GmbH, priority 2000, dated 2004).
# Tested on: AMPA receptor channels
# Experiment: AMPA-induced ionic currents in RNA-injected Xenopus oocytes
# Format: cell-based, rat
# Conditions: 10 μmol/l compound; AMPA 100 μmol/l; n = 2
# Experimental: Xenopus oocytes from stages V and VI (Dumont, J. N., Journal of Morphology, Vol. 136, 1972) were micro-injected with total RNA from brain tissue of adult rats (100-130 ng/cell) and kept in the culture medium (composition in mmol/l: 88.0 NaCl, 1.0 KCl, 1.5 CaCl2, 0.8 MgSO4, 2.4 NaHCO3, 5 HEPES, 100 IU/ml penicillin, 100 μg/ml streptomycin, pH 7.4) for up to 10 days at 20° C. Transmembranous ionic currents were recorded as in conventional two-electrode voltage clamp technology with a holding potential of −70 mV (P. Bloms-Funke P, M. Madeja, U. Muβhoff, E.-J. Speckman, Neuroscience Letters, Vol. 205, p. 115, 1996). The OTC interface and the Cellworks Software were used for recording data and controlling the test apparatus (npi, FRG). […] To test the effects of substances brought about via the glycine B-binding site of the NMDA receptor channel, the glycine dosage/response curve was recorded with and without the respective compound according to the invention. […] The data was analyzed using Igor-Pro software (Version 3.1, WaveMetrics USA). […] The significance for unpaired measured quantities is determined by the Mann-Whitney U-Test and for paired measured quantities by the Wilcoxon test (Sysstat. SPSS Inc., USA). EC50 values are calculated according to the following formula: […]
structure (smiles),measurement,value
"O=C(O)C1Nc2cc(Cl)cc(Cl)c2C2C=CCC12 (stereo not shown) [Example 2, 7,9-dichloro-3a,4,5,9b-tetrahydro-3H-cyclopenta[c]quinoline-4-carboxylic Acid]",AMPA-induced ionic currents Inhibition with 10 μmol/l of compounds according to the invention,5.4% (n = 2)
